Test results published in PMC9952435, “Characterization of Two Novel AmpC Beta-Lactamases from the Emerging Opportunistic Pathogen, Cedecea neteri” (Antibiotics, 2023).
Read-outs that look alike come from different tables or passages of the source.

Assays:
[1] = system: rAmpC CNE-2 from C. neteri ATCC 33855; assay type: biochemical; conditions: nitrocefin as substrate; 500 nM rAmpC, pH 7, 30 °C
[2] = system: rAmpC CNE-2 from C. neteri ATCC 33855; assay type: biochemical; conditions: for Km: Ki or Km,apparent, 200 µM nitrocefin reporter, 500 nM rAmpC, all standard deviations ≤15%

Row | SMILES | Km [2] [µM] | further results
1 | O=C(Cc1cccs1)N[C@@H]1C(=O)N2C(C(=O)O)=C(/C=C/c3ccc([N+](=O)[O-])cc3[N+](=O)[O-])CS[C@H]12 [nitrocefin] |  | Km [1]: 133 ± 11 µM; kcat [1]: 3.13 ± 0.27 s⁻¹
2 | CC1(C)S[C@@H]2[C@H](NC(=O)Cc3ccccc3)C(=O)N2[C@H]1C(=O)O [Penicillin, penicillin] | 11 | 
3 | C[C@@H](O)[C@H]1C(=O)N2C(C(=O)O)=C(SCCN=CN)C[C@H]12 [Imipenem, imipenem] | 2 | Km ([2]; listed as imipenem): ~2 µM
4 | Cc1nnc(SCC2=C(C(=O)O)N3C(=O)[C@@H](NC(=O)Cn4cnnn4)[C@H]3SC2)s1 [Cefazolin, cefazolin] | 100 | 
5 | CO[C@@]1(NC(=O)Cc2cccs2)C(=O)N2C(C(=O)O)=C(COC(N)=O)CS[C@@H]21 [Cefoxitin, cefoxitin] | 54 | Km, fold higher than for CDA-1 from C. davisae ([2]; CNE-2 compared with CDA-1 (ref 13)): 100 fold
6 | CC1(C)S[C@@H]2[C@H](NC(=O)[C@H](N)c3ccccc3)C(=O)N2[C@H]1C(=O)O [Ampicillin, ampicillin] | 12 | 
7 | CO/N=C(\C(=O)N[C@@H]1C(=O)N2C(C(=O)O)=C(COC(N)=O)CS[C@H]12)c1ccco1 [Cefuroxime, cefuroxime] | 4 | 
8 | CC1=C(C(=O)O)N2C(=O)[C@@H](NC(=O)[C@H](N)c3ccccc3)[C@H]2SC1 [Cephalexin, cephalexin] | 5 | 
